Data reported in ChEMBL document CHEMBL3286238, “Synthesis of a novel legumain-cleavable colchicine prodrug with cell-specific toxicity” (Bioorg Med Chem, 2014).

How the values were obtained:
[1] = Cytotoxicity against human M38L cells after 48 hrs by MTS assay; assay type: cell-based; conditions: for EC50: Homo sapiens, M38L; for EC25: human, m38l
HEK293 = assay: Cytotoxicity against HEK293 cells after 48 hrs by MTS assay; assay type: cell-based, Homo sapiens; conditions: for EC50: Homo sapiens, HEK293, 48 h; for EC25: human, hek293, 48 h
[2] = Potency index, ratio of EC50 for valyl colchicine to EC50 for compound against HEK293 cells after 48 hrs by MTS assay; assay type: cell-based; conditions: human, read-out: Ratio EC50

Row | SMILES | EC50 [1] [nM] | EC25 [1] [µM] | EC50 (HEK293) [nM] | EC25 (HEK293) [µM] | selectivity ratio at 48 h [2]
1 | COc1cc2c(c(OC)c1OC)-c1ccc(OC)c(=O)cc1[C@@H](NC(=O)[C@@H](N)C(C)C)CC2.Cl | 300 | 0.2 | 300 | 0.08 | 
2 | COc1cc2c(c(OC)c1OC)-c1ccc(OC)c(=O)cc1[C@@H](NC(C)=O)CC2 [COLCHICINE] | 30 | 0.02 | 30 | 0.02 | 10
